Data as given in ChEMBL document CHEMBL1142399, “Water-soluble pleuromutilin derivative with excellent in vitro and in vivo antibacterial activity against gram-positive pathogens” (J Med Chem, 2008).
Values after ≈ are worked out from the molar mass of the structure shown.

Tests used:
Enterococcus faecalis = assay: microbe, parasite or virus in culture; conditions: ATCC 29212
Atopobium parvulum = assay: Antibacterial activity against Atopobium parvulum GAI 5542 by broth microdilution method; type: functional; conditions: Lancefieldella parvula
Enterococcus faecium [1] = assay: microbe, parasite or virus in culture; conditions: ATCC 19434
Staphylococcus aureus [2] = assay: Antibacterial activity against methicillin-susceptible Staphylococcus aureus Smith in mouse dosed iv 1 hr after infection; type: functional
[3] = test system: Mycoplasmoides pneumoniae; assay: Antibacterial activity against Mycoplasma pneumoniae FH Liu by broth microdilution method; type: functional
Finegoldia magna = assay: Antibacterial activity against Peptostreptococcus magnus GAI 5528 by broth microdilution method; type: functional
[4] = test system: Mycoplasmoides pneumoniae; assay: Antibacterial activity against Mycoplasma pneumoniae Mac by broth microdilution method; type: functional
Streptococcus pneumoniae [5] = assay: Antibacterial activity against penicillin-susceptible Streptococcus pneumoniae ATCC 49619 in mouse dosed iv 1 hr after infection; type: functional; conditions: ATCC 49619, iv
Staphylococcus aureus [6] = assay: Antibacterial activity against methicillin-resistant Staphylococcus aureus KT0116 in mouse dosed iv 1 hr after infection; type: functional
Streptococcus pyogenes = assay: Antibacterial activity against Streptococcus pyogenes ATCC 12344 by broth microdilution method; type: functional
Staphylococcus aureus [7] = assay: microbe, parasite or virus in culture
[8] = test system: Peptostreptococcus anaerobius; assay: Antibacterial activity against Peptostreptococcus anaerobius GAI 5506 by broth microdilution method; type: functional
Staphylococcus aureus [9] = assay: microbe, parasite or virus in culture; conditions: Smith
Streptococcus pneumoniae [10] = assay: Antibacterial activity against penicillin-resistant Streptococcus pneumoniae KT2524 in mouse dosed iv 1 hr after infection; type: functional
[11] = test system: Streptococcus intermedius; assay: Antibacterial activity against Streptococcus intermedius GAI 7416 by broth microdilution method; type: functional
[12] = test system: Propionibacterium granulosum; assay: Antibacterial activity against Propionibacterium granulosum GAI 7414 by broth microdilution method; type: functional; conditions: Cutibacterium granulosum
[13] = test system: Staphylococcus epidermidis; assay: Antibacterial activity against Staphylococcus epidermidis ATCC 12228 by broth microdilution method; type: functional
Haemophilus influenzae = assay: Antibacterial activity against Haemophilus influenzae TH13 by broth microdilution method; type: functional
Staphylococcus aureus [14] = assay: microbe, parasite or virus in culture; conditions: KMP9
Enterococcus faecium [15] = assay: Antibacterial activity against vancomycin-resistant Enterococcus faecium KU1778 clinical isolate by broth microdilution method; type: functional
Clostridium perfringens = assay: Antibacterial activity against Clostridium perfringens GAI 5526 by broth microdilution method; type: functional
[16] = test system: Staphylococcus saccharolyticus; assay: Antibacterial activity against Staphylococcus saccharolyticus GAI 5520 by broth microdilution method; type: functional
[17] = test system: Peptoniphilus asaccharolyticus; assay: Antibacterial activity against Peptostreptococcus asaccharolyticus GAI 5534 by broth microdilution method; type: functional
Staphylococcus aureus [18] = assay: microbe, parasite or virus in culture; remark: listed apart in the source
Cutibacterium acnes = assay: Antibacterial activity against Propionibacterium acnes GAI 5568 by broth microdilution method; type: functional
Moraxella catarrhalis = assay: Antibacterial activity against Moraxella catarrhalis K1209 by broth microdilution method; type: functional
Streptococcus pneumoniae [19] = assay: Antibacterial activity against penicillin-susceptible Streptococcus pneumoniae ATCC 6303 in mouse pulmonary infection model assessed as survival at 6.25 mg/kg, ip twice daily for 3 days; type: functional; conditions: route intraperitoneal
Streptococcus pneumoniae [20] = assay: microbe, parasite or virus in culture; conditions: ATCC 49619
Streptococcus pneumoniae [21] = assay: microbe, parasite or virus in culture

Row | Structure (SMILES) | MIC (Atopobium parvulum) | MIC (Enterococcus faecium [1]) | ED50 (Staphylococcus aureus [2]) | MIC [3] | MIC (Finegoldia magna) | MIC [4] | ED50 (Streptococcus pneumoniae [5]) | ED50 (Staphylococcus aureus [6]) | MIC (Streptococcus pyogenes) | MIC [8] | ED50 (Streptococcus pneumoniae [10]) | MIC [11] | MIC [12] | MIC (Haemophilus influenzae) | MIC (Enterococcus faecium [15]) | MIC (Clostridium perfringens) | MIC [16] | MIC [17] | MIC (Cutibacterium acnes) | MIC (Moraxella catarrhalis) | other results
1 | C[C@H]1COc2c(N3CCN(C)CC3)c(F)cc3c(=O)c(C(=O)O)cn1c23.C[C@H]1COc2c(N3CCN(C)CC3)c(F)cc3c(=O)c(C(=O)O)cn1c23.O [LEVOFLOXACIN] | 0.25 µg/mL | 4 µg/mL | 0.78 mg/kg | 0.125 µg/mL | 0.125 µg/mL | 0.063 µg/mL | 24.7 mg/kg | > 100 mg/kg | 0.5 µg/mL | 0.125 µg/mL | > 100 mg/kg | 0.5 µg/mL | 0.25 µg/mL | 0.032 µg/mL | 64 µg/mL | 0.25 µg/mL | 0.125 µg/mL | 2 µg/mL | 0.25 µg/mL | 0.063 µg/mL | MIC (Enterococcus faecalis): 0.5 µg/mL; MIC (Staphylococcus aureus [7]): 0.125 µg/mL; MIC (Staphylococcus aureus [9]): 0.125 µg/mL; MIC [13]: 0.25 µg/mL; MIC (Staphylococcus aureus [14]): > 128 µg/mL; MIC (Staphylococcus aureus [18]): > 128 µg/mL
2 | CN[C@H](CC(C)C)C(=O)N[C@H]1C(=O)N[C@@H](CC(N)=O)C(=O)N[C@H]2C(=O)N[C@H]3C(=O)N[C@H](C(=O)N[C@H](C(=O)O)c4cc(O)cc(O)c4-c4cc3ccc4O)[C@H](O)c3ccc(c(Cl)c3)Oc3cc2cc(c3O[C@@H]2O[C@H](CO)[C@@H](O)[C@H](O)[C@H]2O[C@H]2C[C@](C)(N)[C@H](O)[C@H](C)O2)Oc2ccc(cc2Cl)[C@H]1O [VANCOMYCIN] | 2 µg/mL (≈ 1.38 µM) |  | 0.88 mg/kg | > 128 µg/mL | 0.25 µg/mL (≈ 0.173 µM) | > 128 µg/mL | 1.06 mg/kg | 1.01 mg/kg |  | 0.25 µg/mL (≈ 0.173 µM) | 2.37 mg/kg | 1 µg/mL (≈ 0.69 µM) | 0.5 µg/mL (≈ 0.345 µM) | > 128 µg/mL | > 128 µg/mL | 0.5 µg/mL (≈ 0.345 µM) | 2 µg/mL (≈ 1.38 µM) | 0.125 µg/mL (≈ 0.0863 µM) | 0.5 µg/mL (≈ 0.345 µM) | 64 µg/mL (≈ 44.2 µM) | Activity (Streptococcus pneumoniae [19]): 50%; MIC (Streptococcus pneumoniae [20]): 0.25 µg/mL (≈ 0.173 µM); MIC (Streptococcus pneumoniae [21]): 0.5 µg/mL (≈ 0.345 µM)
3 | CC1(C)S[C@@H]2[C@H](NC(=O)[C@H](N)c3ccccc3)C(=O)N2[C@H]1C(=O)O [AMPICILLIN] | 0.125 µg/mL (≈ 0.358 µM) |  |  |  | 0.25 µg/mL (≈ 0.715 µM) |  |  |  |  | 0.125 µg/mL (≈ 0.358 µM) |  | 0.125 µg/mL (≈ 0.358 µM) | 0.063 µg/mL (≈ 0.18 µM) |  |  | 0.063 µg/mL (≈ 0.18 µM) | 0.008 µg/mL (≈ 0.0229 µM) | 0.25 µg/mL (≈ 0.715 µM) | 0.125 µg/mL (≈ 0.358 µM) |  | 
4 | CN(C)c1ccc(O)c2c1C[C@H]1C[C@H]3[C@H](N(C)C)C(O)=C(C(N)=O)C(=O)[C@@]3(O)C(O)=C1C2=O [MINOCYCLINE] | 0.25 µg/mL (≈ 0.546 µM) | 0.063 µg/mL (≈ 0.138 µM) | 0.515 mg/kg | 0.25 µg/mL (≈ 0.546 µM) | 0.125 µg/mL (≈ 0.273 µM) | 0.25 µg/mL (≈ 0.546 µM) | 0.968 mg/kg | 50 mg/kg | 0.063 µg/mL (≈ 0.138 µM) | 0.032 µg/mL (≈ 0.0699 µM) | 50 mg/kg | 0.25 µg/mL (≈ 0.546 µM) | 0.25 µg/mL (≈ 0.546 µM) | 0.5 µg/mL (≈ 1.09 µM) | 0.063 µg/mL (≈ 0.138 µM) | 0.063 µg/mL (≈ 0.138 µM) | 0.125 µg/mL (≈ 0.273 µM) | 16 µg/mL (≈ 35 µM) | 0.125 µg/mL (≈ 0.273 µM) | 0.25 µg/mL (≈ 0.546 µM) | MIC (Staphylococcus aureus [7]): 0.063 µg/mL (≈ 0.138 µM); MIC (Staphylococcus aureus [9]): 0.063 µg/mL (≈ 0.138 µM); MIC [13]: 0.125 µg/mL (≈ 0.273 µM); MIC (Staphylococcus aureus [14]): 4 µg/mL (≈ 8.74 µM); MIC (Streptococcus pneumoniae [20]): 0.032 µg/mL (≈ 0.0699 µM); MIC (Staphylococcus aureus [18]): 16 µg/mL (≈ 35 µM); MIC (Streptococcus pneumoniae [21]): 8 µg/mL (≈ 17.5 µM)
